Measured values: patent US20220281848A1, “PYRAZOLE-SUBSTITUTED PYRROLIDINONES AS HERBICIDES” (FMC Corporation, priority 2019, published 2022)

System: plants
Experiment: Test D pre-emergence, other plants of Tables D1 and D3
Type: in vivo
Details: 20 DAA; for damage to plant (100=total damage to plant; 0=no damage to plant), BIDPI / damage to plant (100=total damage to plant; 0=no damage to plant), BRAPL / damage to plant (100=total damage to plant; 0=no damage to plant), CYPES / damage to plant (100=total damage to plant; 0=no damage to plant), EPHHL / damage to plant (100=total damage to plant; 0=no damage to plant), GLXMA / damage to plant (100=total damage to plant; 0=no damage to plant), IPOHE / damage to plant (100=total damage to plant; 0=no damage to plant), SORVU: preemergent; for CHEAL damage rating / GALAP damage rating / KCHSC damage rating / LOLPE damage rating / POAAN damage rating / STEME damage rating / VERPE damage rating: pre-emergence, 100=total damage, 0=no damage
Method in brief: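 Damage was rated visually from 0 (none) to 100 (total), at 20 DAA for pre-emergence and 15 d for post-emergence. Plants grew from safener-treated seed in a glasshouse at 24/18° C. or 20/16° C. day/night, 65% humidity, watered twice daily.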

CN1CC(c2cc(C(F)(F)F)n(C)n2)C(C(=O)Nc2ccc(F)cc2C(C)(F)F)C1=O (racemic) [Compound 26]
damage to plant (100=total damage to plant; 0=no damage to plant), BIDPI (rate 15): 0
damage to plant (100=total damage to plant; 0=no damage to plant), BIDPI (rate 30): 0
damage to plant (100=total damage to plant; 0=no damage to plant), BIDPI (rate 60): 0
damage to plant (100=total damage to plant; 0=no damage to plant), BIDPI (rate 130): 0
damage to plant (100=total damage to plant; 0=no damage to plant), BIDPI (rate 250): 0
damage to plant (100=total damage to plant; 0=no damage to plant), BIDPI (rate 500): 0
damage to plant (100=total damage to plant; 0=no damage to plant), BRAPL (rate 15): 0
damage to plant (100=total damage to plant; 0=no damage to plant), BRAPL (rate 30): 70
damage to plant (100=total damage to plant; 0=no damage to plant), BRAPL (rate 60): 80
damage to plant (100=total damage to plant; 0=no damage to plant), BRAPL (rate 130): 80
damage to plant (100=total damage to plant; 0=no damage to plant), BRAPL (rate 250): 80
damage to plant (100=total damage to plant; 0=no damage to plant), BRAPL (rate 500): 80
CHEAL damage rating (Rates 15): 0
CHEAL damage rating (Rates 30): 0
CHEAL damage rating (Rates 60): 0
CHEAL damage rating (Rates 130): 0
CHEAL damage rating (Rates 250): 10
CHEAL damage rating (Rates 500): 10
damage to plant (100=total damage to plant; 0=no damage to plant), CYPES (rate 15): 0
damage to plant (100=total damage to plant; 0=no damage to plant), CYPES (rate 30): 0
damage to plant (100=total damage to plant; 0=no damage to plant), CYPES (rate 60): 0
damage to plant (100=total damage to plant; 0=no damage to plant), CYPES (rate 130): 0
damage to plant (100=total damage to plant; 0=no damage to plant), CYPES (rate 250): 0
damage to plant (100=total damage to plant; 0=no damage to plant), CYPES (rate 500): 10
damage to plant (100=total damage to plant; 0=no damage to plant), EPHHL (rate 15): 0
damage to plant (100=total damage to plant; 0=no damage to plant), EPHHL (rate 30): 0
damage to plant (100=total damage to plant; 0=no damage to plant), EPHHL (rate 60): 0
damage to plant (100=total damage to plant; 0=no damage to plant), EPHHL (rate 130): 0
damage to plant (100=total damage to plant; 0=no damage to plant), EPHHL (rate 250): 0
damage to plant (100=total damage to plant; 0=no damage to plant), EPHHL (rate 500): 0
GALAP damage rating (Rates 15): 0
GALAP damage rating (Rates 30): 0
GALAP damage rating (Rates 60): 0
GALAP damage rating (Rates 130): 0
GALAP damage rating (Rates 250): 0
GALAP damage rating (Rates 500): 20
damage to plant (100=total damage to plant; 0=no damage to plant), GLXMA (rate 15): 0
damage to plant (100=total damage to plant; 0=no damage to plant), GLXMA (rate 30): 0
damage to plant (100=total damage to plant; 0=no damage to plant), GLXMA (rate 60): 0
damage to plant (100=total damage to plant; 0=no damage to plant), GLXMA (rate 130): 0
damage to plant (100=total damage to plant; 0=no damage to plant), GLXMA (rate 250): 0
damage to plant (100=total damage to plant; 0=no damage to plant), GLXMA (rate 500): 0
damage to plant (100=total damage to plant; 0=no damage to plant), IPOHE (rate 15): 0
damage to plant (100=total damage to plant; 0=no damage to plant), IPOHE (rate 30): 0
damage to plant (100=total damage to plant; 0=no damage to plant), IPOHE (rate 60): 0
damage to plant (100=total damage to plant; 0=no damage to plant), IPOHE (rate 130): 0
damage to plant (100=total damage to plant; 0=no damage to plant), IPOHE (rate 250): 0
damage to plant (100=total damage to plant; 0=no damage to plant), IPOHE (rate 500): 0
KCHSC damage rating (Rates 15): 0
KCHSC damage rating (Rates 30): 0
KCHSC damage rating (Rates 60): 0
KCHSC damage rating (Rates 130): 0
KCHSC damage rating (Rates 250): 0
KCHSC damage rating (Rates 500): 0
LOLPE damage rating (Rates 15): 0
LOLPE damage rating (Rates 30): 0
LOLPE damage rating (Rates 60): 0
LOLPE damage rating (Rates 130): 30
LOLPE damage rating (Rates 250): 90
LOLPE damage rating (Rates 500): 90
POAAN damage rating (Rates 15): 0
POAAN damage rating (Rates 30): 0
POAAN damage rating (Rates 60): 0
POAAN damage rating (Rates 130): 30
POAAN damage rating (Rates 250): 60
POAAN damage rating (Rates 500): 100
damage to plant (100=total damage to plant; 0=no damage to plant), SORVU (rate 15): 0
damage to plant (100=total damage to plant; 0=no damage to plant), SORVU (rate 30): 0
damage to plant (100=total damage to plant; 0=no damage to plant), SORVU (rate 60): 0
damage to plant (100=total damage to plant; 0=no damage to plant), SORVU (rate 130): 0
damage to plant (100=total damage to plant; 0=no damage to plant), SORVU (rate 250): 0
damage to plant (100=total damage to plant; 0=no damage to plant), SORVU (rate 500): 0
STEME damage rating (Rates 15): 0
STEME damage rating (Rates 30): 0
STEME damage rating (Rates 60): 0
STEME damage rating (Rates 130): 10
STEME damage rating (Rates 250): 40
STEME damage rating (Rates 500): 70
VERPE damage rating (Rates 15): 0
VERPE damage rating (Rates 30): 0
VERPE damage rating (Rates 60): 0
VERPE damage rating (Rates 130): 0
VERPE damage rating (Rates 250): 10
